Experimental data as given in PMC5421785, “Citrullination only infrequently impacts peptide binding to HLA class II MHC” (PLoS ONE, 2017).
Where two headings read alike, the source gives them in different places. One block for each compound: values may come before it. Square brackets hold non-standard residues; d marks the D form. Ends that are not written are not given here. Peptide text beside a SMILES is read from it. Cit = NC(=O)NCCC[C@H](N)C(=O)O

What was measured:
HLA-DRB1*01:01 = target: T1, HLA-DRB1*01:01 (Homo sapiens, UniProt P01903+P01911, A100R/D57E/F55L/F60I/F76Y/I96L/L162R/M171V/P40L/Q125E/R42F/V115G/Y59C); experiment: HLA class II peptide binding, inhibition of radiolabeled peptide binding to purified MHC; settings: for DRB1*01:01 binding capacity, WT/cit ratio: ratio of WT IC50 to Cit IC50
T1 construct: EBV transformed homozygous cell lines were used as sources of MHC molecules; endogenous in cells; host or cells: EBV transformed homozygous cell lines

HLA-DRB1*04:01 = target: T2, HLA-DRB1*04:01 (Homo sapiens, UniProt P01903+P01911, A100K/A169T/F76Y/I96L/K127E/L162R/M171V/N62H/P40V/Q125Y/R42H/S133A/S149N/S66Y/V115G/V209L/W38E); experiment: as above; settings: for DRB1*04:01 binding capacity, WT/cit ratio: ratio of WT IC50 to Cit IC50
T2 construct: EBV transformed homozygous cell lines were used as sources of MHC molecules; endogenous in cells; host or cells: EBV transformed homozygous cell lines

[1] = citrullinated 15-mer (X), purified MHC, inhibition of radiolabeled peptide binding, dash = IC50 >40,000 nM, read-out: DRB1*01:01 binding capacity, Cit peptide (IC50 nM)
[2] = citrullinated 15-mer (X), purified MHC, inhibition of radiolabeled peptide binding, dash = IC50 >40,000 nM, read-out: DRB1*04:01 binding capacity, Cit peptide (IC50 nM)
[3] = read-out: DRB1*01:01 binding capacity, WT peptide (IC50 nM)
[4] = read-out: DRB1*04:01 binding capacity, WT peptide (IC50 nM)
[5] = citrullinated 15-mer peptide (X = citrulline), purified HLA-DRB1*01:01, read-out: DRB1*01:01 binding capacity, Cit peptide (IC50 nM)
[6] = citrullinated 15-mer peptide (X = citrulline), purified HLA-DRB1*04:01, read-out: DRB1*04:01 binding capacity, Cit peptide (IC50 nM)
[7] = wild-type (unmodified Arg) 15-mer peptide, purified HLA-DRB1*01:01, read-out: DRB1*01:01 binding capacity, WT peptide (IC50 nM)
[8] = wild-type (unmodified Arg) 15-mer peptide, purified HLA-DRB1*04:01, read-out: DRB1*04:01 binding capacity, WT peptide (IC50 nM)
[9] = citrullinated peptide as listed (X at Cit position), read-out: DRB1*01:01 binding capacity Cit peptide (IC50 nM)
[10] = citrullinated peptide as listed (X at Cit position), read-out: DRB1*04:01 binding capacity Cit peptide (IC50 nM)
[11] = >1 = citrullination increases binding

Compound: CSCC[C@H](NC(=O)[C@H](CCCNC(=N)N)NC(=O)[C@H](CCCNC(=N)N)NC(=O)[C@H](Cc1ccc(O)cc1)NC(=O)[C@H](CO)NC(=O)[C@H](CO)NC(=O)[C@H](CO)NC(=O)[C@H](CO)NC(=O)[C@@H](NC(=O)[C@H](CO)NC(=O)[C@H](CCCNC(N)=O)NC(=O)[C@@H](NC(=O)[C@H](CO)NC(=O)[C@@H](N)CCSC)[C@@H](C)O)C(C)C)C(=O)N[C@@H](Cc1ccccc1)C(=O)O [MSTXSVSSSSYRRMF] (H-MST[Cit]SVSSSSYRRMF-OH)
IC50 (HLA-DRB1*01:01; [1]): 573 nM
IC50 (HLA-DRB1*04:01; [2]): 1080 nM

Compound: VSSSSYRRMFGGPGT [Vimentin 6 WT]
IC50 (HLA-DRB1*01:01; [3]): 25 nM
IC50 (HLA-DRB1*04:01; [4]): 725 nM

Compound: CC[C@H](C)[C@H](NC(=O)[C@@H](N)CC(=O)O)C(=O)N[C@@H](CCSC)C(=O)N[C@@H](CCCNC(=N)N)C(=O)N[C@@H](CC(C)C)C(=O)N[C@@H](CCCNC(N)=O)C(=O)N[C@@H](CCC(=O)O)C(=O)N[C@@H](CCCCN)C(=O)N[C@@H](CC(C)C)C(=O)N[C@@H](CCC(N)=O)C(=O)N[C@@H](CCC(=O)O)C(=O)N[C@@H](CCC(=O)O)C(=O)N[C@@H](CCSC)C(=O)N[C@@H](CC(C)C)C(=O)N[C@@H](CCC(N)=O)C(=O)O [DIMRLXEKLQEEMLQ] (H-DIMRL[Cit]EKLQEEMLQ-OH)
IC50 (HLA-DRB1*01:01; [1]): 729 nM
IC50 (HLA-DRB1*04:01; [2]): > 40000 nM

Compound: CC(C)[C@H](NC(=O)[C@H](CCCNC(N)=O)NC(=O)CNC(=O)[C@H](C)NC(=O)[C@H](C)NC(=O)CNC(=O)[C@@H]1CCCN1C(=O)[C@H](Cc1ccccc1)NC(=O)CNC(=O)[C@@H](N)[C@@H](C)O)C(=O)NCC(=O)N1CCC[C@H]1C(=O)N1CCC[C@H]1C(=O)NCC(=O)N[C@@H](CO)C(=O)O [TGFPGAAGXVGPPGS] (H-TGFPGAAG[Cit]VGPPGS-OH)
IC50 (HLA-DRB1*01:01; [5]): 3470 nM
IC50 (HLA-DRB1*04:01; [6]): > 40000 nM

Compound: CC[C@H](C)[C@H](NC(=O)[C@H](CC(=O)O)NC(=O)[C@H](CCSC)NC(=O)[C@@H]1CCCN1C(=O)[C@H](C)NC(=O)[C@@H](NC(=O)[C@H](CC(=O)O)NC(=O)[C@@H](NC(=O)[C@@H](NC(=O)[C@@H]1CCCN1C(=O)[C@H](CC(C)C)NC(=O)[C@H](CCCNC(N)=O)NC(=O)[C@H](CO)NC(=O)[C@@H](NC(=O)[C@@H](N)CCCCN)[C@@H](C)O)[C@@H](C)CC)[C@@H](C)CC)[C@@H](C)CC)C(=O)O [KTSXLPIIDIAPMDI] (H-KTS[Cit]LPIIDIAPMDI-OH)
IC50 (HLA-DRB1*01:01; [9]): 634 nM
IC50 (HLA-DRB1*01:01; value of the wild-type (non-citrullinated) counterpart of the listed peptide, read-out: DRB1*01:01 binding capacity WT peptide (IC50 nM)): 361 nM
IC50 (HLA-DRB1*04:01; [10]): 7060 nM
IC50 (HLA-DRB1*04:01; value of the wild-type (non-citrullinated) counterpart of the listed peptide, read-out: DRB1*04:01 binding capacity WT peptide (IC50 nM)): 8750 nM

Compound: PGIDMSAFAGLGPRE [Collagen 1216 WT]
IC50 (HLA-DRB1*01:01; [7]): 8.7 nM
IC50 (HLA-DRB1*04:01; [8]): 14100 nM

Compound: CSCC[C@H](NC(=O)[C@H](CCC(=O)O)NC(=O)[C@H](CCC(=O)O)NC(=O)[C@H](CCC(N)=O)NC(=O)[C@H](CC(C)C)NC(=O)[C@H](CCCCN)NC(=O)[C@H](CCC(=O)O)NC(=O)[C@@H](N)CCCNC(=N)N)C(=O)N[C@@H](CC(C)C)C(=O)N[C@@H](CCC(N)=O)C(=O)N[C@@H](CCCNC(N)=O)C(=O)N[C@@H](CCC(=O)O)C(=O)N[C@@H](CCC(=O)O)C(=O)N[C@@H](C)C(=O)N[C@@H](CCC(=O)O)C(=O)O [REKLQEEMLQXEEAE] (H-REKLQEEMLQ[Cit]EEAE-OH)
IC50 (HLA-DRB1*01:01; [1]): 13200 nM
IC50 (HLA-DRB1*04:01; [2]): > 40000 nM

Compound: DGPKGARGDSGPPGR [Collagen 926 WT]
IC50 (HLA-DRB1*01:01; [7]): 26700 nM
IC50 (HLA-DRB1*04:01; [8]): 27400 nM

Compound: CC[C@H](C)[C@H](NC(=O)[C@H](CCC(=O)O)NC(=O)[C@@H](NC(=O)[C@H](CC(=O)O)NC(=O)[C@H](CC(N)=O)NC(=O)[C@@H](N)CO)C(C)C)C(=O)N[C@@H](CCCNC(=N)N)C(=O)N[C@@H](C)C(=O)N[C@@H](CCC(=O)O)C(=O)NCC(=O)N[C@@H](CC(N)=O)C(=O)N[C@@H](CO)C(=O)N[C@@H](CCCNC(N)=O)C(=O)N[C@@H](Cc1ccccc1)C(=O)N[C@H](C(=O)O)[C@@H](C)O [SNDVEIRAEGNSXFT] (H-SNDVEIRAEGNS[Cit]FT-OH)
IC50 (HLA-DRB1*01:01; [9]): 92 nM
IC50 (HLA-DRB1*04:01; [10]): 178 nM

Compound: CC(C)C[C@H](NC(=O)[C@H](CCCNC(N)=O)NC(=O)[C@@H](NC(=O)[C@H](C)NC(=O)[C@H](CO)NC(=O)[C@H](CO)NC(=O)[C@H](CCCNC(=N)N)NC(=O)[C@@H](NC(=O)[C@H](C)NC(=O)[C@H](Cc1ccc(O)cc1)NC(=O)[C@@H](NC(=O)CNC(=O)CNC(=O)[C@@H]1CCCN1C(=O)[C@@H](N)CO)C(C)C)[C@@H](C)O)C(C)C)C(=O)O [SPGGVYATRSSAVXL] (H-SPGGVYATRSSAV[Cit]L-OH)
IC50 (HLA-DRB1*01:01; [1]): 7.6 nM
IC50 (HLA-DRB1*04:01; [2]): 497 nM

Compound: LVAAVLRCQGQDVQE [Collagen 16 WT]
IC50 (HLA-DRB1*01:01; [7]): 21 nM
IC50 (HLA-DRB1*04:01; [8]): 4730 nM

Compound: C[C@H](N)C(=O)N[C@@H](CCCNC(N)=O)C(=O)NCC(=O)N[C@@H](C)C(=O)N[C@@H](CCC(N)=O)C(=O)NCC(=O)N1CCC[C@H]1C(=O)N1CCC[C@H]1C(=O)NCC(=O)N[C@@H](C)C(=O)N[C@H](C(=O)NCC(=O)N[C@@H](Cc1ccccc1)C(=O)N1CCC[C@H]1C(=O)NCC(=O)O)[C@@H](C)O [AXGAQGPPGATGFPG] (H-A[Cit]GAQGPPGATGFPG-OH; N-terminus and C-terminus assumed)
IC50 (HLA-DRB1*01:01; [5]): > 40000 nM
DRB1*01:01 binding capacity, WT/cit ratio (HLA-DRB1*01:01; [11]): 0.7
IC50 (HLA-DRB1*04:01; [6]): > 40000 nM
DRB1*04:01 binding capacity, WT/cit ratio (HLA-DRB1*04:01; [11]): 1.0

Compound: CC(C)C[C@H](NC(=O)[C@H](C)NC(=O)[C@H](CC(=O)O)NC(=O)[C@H](CC(N)=O)NC(=O)[C@H](CC(N)=O)NC(=O)[C@H](CCCNC(N)=O)NC(=O)[C@H](CC(N)=O)NC(=O)[C@H](C)NC(=O)[C@H](C)N)C(=O)N[C@@H](CCCNC(=N)N)C(=O)N[C@@H](CCC(N)=O)C(=O)N[C@@H](C)C(=O)N[C@@H](CCCCN)C(=O)N[C@@H](CCC(N)=O)C(=O)N[C@@H](CCC(=O)O)C(=O)O [AANXNNDALRQAKQE] (H-AAN[Cit]NNDALRQAKQE-OH; N-terminus and C-terminus assumed)
IC50 (HLA-DRB1*01:01; [1]): > 40000 nM
DRB1*01:01 binding capacity, WT/cit ratio (HLA-DRB1*01:01): 1.0
IC50 (HLA-DRB1*04:01; [2]): > 40000 nM
DRB1*04:01 binding capacity, WT/cit ratio (HLA-DRB1*04:01): 1.0

Compound: PGLRGLPGKDGETGA [Collagen 626 WT]
IC50 (HLA-DRB1*01:01; [7]): 259 nM
IC50 (HLA-DRB1*04:01; [8]): > 40000 nM

Compound: CC(C)C[C@H](NC(=O)[C@H](CO)NC(=O)[C@H](Cc1ccc(O)cc1)NC(=O)[C@@H](NC(=O)[C@H](CCCNC(N)=O)NC(=O)[C@@H](NC(=O)[C@H](CO)NC(=O)[C@@H](NC(=O)[C@@H](NC(=O)[C@@H](NC(=O)[C@H](Cc1ccc(O)cc1)NC(=O)[C@H](CO)NC(=O)[C@H](CCCNC(=N)N)NC(=O)[C@H](CO)NC(=O)[C@@H](N)CO)C(C)C)[C@@H](C)O)[C@@H](C)O)[C@@H](C)O)[C@@H](C)O)C(=O)O [SSRSYVTTSTXTYSL] (H-SSRSYVTTST[Cit]TYSL-OH)
IC50 (HLA-DRB1*01:01; [1]): 85 nM
IC50 (HLA-DRB1*04:01; [2]): 109 nM

Further lines, results first:

IC50 (HLA-DRB1*01:01; [3]): 13800 nM
IC50 (HLA-DRB1*04:01; [4]): > 40000 nM
Compound: REKLQEEMLQREEAE [Vimentin 186 WT]

IC50 (HLA-DRB1*01:01; [3]): 862 nM
IC50 (HLA-DRB1*04:01; [4]): 16400 nM
Compound: NDRFANYIDKVRFLE [Vimentin 111 WT]

IC50 (HLA-DRB1*01:01; [5]): 853 nM
IC50 (HLA-DRB1*04:01; [6]): 1890 nM
Compound: CC[C@H](C)[C@H](NC(=O)[C@H](CCCNC(=N)N)NC(=O)[C@H](CO)NC(=O)[C@H](CCC(=O)O)NC(=O)[C@H](CCC(=O)O)NC(=O)CNC(=O)[C@H](CCC(=O)O)NC(=O)[C@H](CC(C)C)NC(=O)[C@H](CC(C)C)NC(=O)[C@H](CCCCN)NC(=O)[C@@H](N)CCCNC(N)=O)C(=O)N[C@@H](CO)C(=O)N[C@@H](CC(C)C)C(=O)N1CCC[C@H]1C(=O)N[C@@H](CC(C)C)C(=O)O [XKLLEGEESRISLPL]

IC50 (HLA-DRB1*01:01; [7]): 1500 nM
IC50 (HLA-DRB1*04:01; [8]): 17000 nM
Compound: QAKQESTEYRRQVQS [Vimentin 311 WT]

IC50 (HLA-DRB1*01:01; [3]): 6310 nM
IC50 (HLA-DRB1*04:01; [4]): 17200 nM
Compound: ARLDLERKVESLQEE [Vimentin 216 WT]

IC50 (HLA-DRB1*01:01; [3]): 5 nM
IC50 (HLA-DRB1*04:01; [4]): 1220 nM
Compound: VTTSTRTYSLGSALR [Vimentin 31 WT]

IC50 (HLA-DRB1*01:01; [3]): 468 nM
IC50 (HLA-DRB1*04:01; [4]): 4350 nM
Compound: EEEMRELRRQVDQLT [Vimentin 151 WT]
